Laboratory results: ChEMBL document CHEMBL1134184, “Synthesis of sialyl Lewis(x) mimics. Modifications of the 6-position of galactose” (Bioorg Med Chem Lett, 2001)
pIC50: −log10 of the molar value.

target: T1, E-selectin (Homo sapiens, UniProt P16581); experiment: Inhibitory concentration of compound to block the binding of sLE Xto E-selectin
T1 sequence (P16581 whole entry): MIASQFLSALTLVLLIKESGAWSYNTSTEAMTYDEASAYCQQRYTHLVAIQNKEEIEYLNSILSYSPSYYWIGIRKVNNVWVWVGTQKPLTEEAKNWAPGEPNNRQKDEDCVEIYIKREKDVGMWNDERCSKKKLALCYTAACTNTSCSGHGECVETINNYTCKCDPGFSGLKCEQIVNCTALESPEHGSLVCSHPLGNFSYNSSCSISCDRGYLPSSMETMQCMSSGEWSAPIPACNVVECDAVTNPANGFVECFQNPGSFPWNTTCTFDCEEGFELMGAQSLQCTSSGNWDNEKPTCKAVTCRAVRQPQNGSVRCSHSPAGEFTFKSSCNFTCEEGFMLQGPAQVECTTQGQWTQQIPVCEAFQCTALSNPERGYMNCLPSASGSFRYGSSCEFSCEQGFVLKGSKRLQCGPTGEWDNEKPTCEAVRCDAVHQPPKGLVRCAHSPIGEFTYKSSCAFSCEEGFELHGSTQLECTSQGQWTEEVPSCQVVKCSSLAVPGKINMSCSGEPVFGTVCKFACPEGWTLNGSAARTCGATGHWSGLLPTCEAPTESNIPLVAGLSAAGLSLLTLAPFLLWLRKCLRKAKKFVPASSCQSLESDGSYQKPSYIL

Row | SMILES | pIC50
1 | CC1OC(OC2CCCCC2OC2OC(C(N)=O)C(O)C(O[C@@H](CC3CCCCC3)C(=O)O)C2O)C(O)C(O)C1O (stereo not given in full) | < 2.00
2 | CC1OC(OC2CCCCC2OC2OC(CN)C(O)C(O[C@@H](Cc3ccccc3)C(=O)O)C2O)C(O)C(O)C1O (stereo not given in full) | < 2.00
3 | COC(=O)CCCCCCCCO[C@@H]1OC(CO)[C@@H](O[C@@H]2O[C@@H](CO)[C@H](O)[C@H](O[C@]3(C(=O)O)C[C@@H](O)[C@@H](NC(C)=O)[C@@H](C(O)C(O)CO)O3)[C@@H]2O)[C@@H](O[C@@H]2O[C@H](C)[C@@H](O)[C@H](O)C2O)[C@@H]1NC(C)=O (stereo not given in full) | 3.00
4 | C[C@@H]1O[C@@H](O[C@@H]2CCCC[C@H]2O[C@@H]2O[C@@H](CO)[C@H](O)[C@H](O[C@@H](Cc3ccccc3)C(=O)O)[C@@H]2O)[C@@H](O)[C@@H](O)[C@@H]1O | 3.46
5 | C[C@@H]1O[C@@H](O[C@@H]2CCCC[C@H]2O[C@@H]2O[C@@H](C(=O)O)[C@H](O)[C@H](O[C@@H](CC3CCCCC3)C(=O)O)[C@@H]2O)[C@@H](O)[C@@H](O)[C@@H]1O | < 2.00
6 | C[C@@H]1O[C@@H](O[C@@H]2CCCC[C@H]2O[C@@H]2O[C@@H](C(=O)O)[C@H](O)[C@H](O[C@@H](Cc3ccccc3)C(=O)O)[C@@H]2O)[C@@H](O)[C@@H](O)[C@@H]1O | < 2.00
7 | C[C@@H]1O[C@@H](O[C@@H]2CCCC[C@H]2O[C@@H]2O[C@@H](COS(=O)(=O)O)[C@H](O)[C@H](O[C@@H](Cc3ccccc3)C(=O)O)[C@@H]2O)[C@@H](O)[C@@H](O)[C@@H]1O | < 2.00
8 | C[C@@H]1O[C@@H](O[C@@H]2CCCC[C@H]2O[C@@H]2O[C@@H](CO)[C@H](O)[C@H](O[C@@H](CC3CCCCC3)C(=O)O)[C@@H]2O)[C@@H](O)[C@@H](O)[C@@H]1O | 4.10
9 | CC(=O)NCC1OC(OC2CCCCC2OC2OC(C)C(O)C(O)C2O)C(O)C(OC(Cc2ccccc2)C(=O)O)C1O (stereo not given) | < 2.00
10 | CC1OC(OC2CCCCC2OC2OC(CNC(=O)c3ccccc3)C(O)C(OC(Cc3ccccc3)C(=O)O)C2O)C(O)C(O)C1O (stereo not given) | < 2.00
